Measurements from publication PMC10747602, “Dose Response, Dosimetric, and Metabolic Evaluations of Replacement PFAS Perfluoro-(2,5,8-trimethyl-3,6,9-trioxadodecanoic) Acid (HFPO-TeA)” (Toxics, 2023).
Several values for one entry are separate records, joined by “and”; a condition that tells them apart may be missing. Equal values may be shown once. Read-outs that look alike come from different tables or passages of the source.

Experiment: Plasma HFPO-TeA dosimetry
Format: in vivo, Sprague Dawley rats
Description: Whole blood was collected from the retro-orbital plexus under isoflurane anesthesia 2 h following the first dose and by cardiac puncture 24 h after the last dosage. Blood was stored in anticoagulant potassium ethylenediaminetetraacetic acid (K3EDTA)-coated vacutainers, and then processed to isolate plasma via centrifugation. Animals were euthanized via carbon dioxide asphyxiation and subsequent exsanguination. Liver was collected, weighed, cubed, and divided into three aliquots. One aliquot of tissue was flash-frozen in liquid nitrogen and stored at −80 °C for analytical chemistry analyses. The remaining two aliquots were placed in RNALater and frozen for use in the companion transcriptomic study. Liver and plasma samples were received at the U.S. EPA Center for Computational Toxicology and Exposure, Advanced Analytical Chemistry Methods Branch in Research Triangle Park, North Carolina, USA, and stored at −80 °C prior to extraction.
Detailed information on the procedure, chemicals, and materials used in the plasma HFPO-TeA dosimetry work can be found in Supplementary Text S4 and Table S3. Plasma preparation (2 h and 5 days) was modified from Conley et al.’s work and is detailed in Supplementary Text S4 [45]. Briefly, aliquots (25 µL) were mixed with methanol (MeOH) and water (H2O) containing 0.1 M FA, spiked with the internal standard perfluorohexadecanoic acid (PFHxDA), and then denatured plasma proteins were precipitated using ACN. Samples were held at −20 °C then centrifuged for separation of the supernatant. Supernatants were collected and stored at −20 °C prior to analysis.
Targeted analysis of HFPO-TeA was conducted on a Sciex X500R QTOF liquid chromatography/mass spectrometer system operated in high-resolution MRM negative ion ESI mode. A Phenomenex C18 column (Kinetex XB-C18, 100 × 2.1 mm, particle size 2.6 µm) was used for chromatographic separation with the flow rate set to 0.2 mL/min and a temperature of 40 °C. […] Ammonium formate (4 mM) was added to both eluents. Additional details of the instrument parameters are provided in Table S8 and monitored transitions in Table S9. Matrix blanks were analyzed with each sample set. Statistical analysis is described in Supplementary Text S3. Normalization calculations are described in Supplementary Text S5 [47, 48].
All in vivo results values are reported as mean ± one standard deviation (SD). Statistical evaluation of in vivo data was conducted using a two-way analysis of variance (ANOVA) and Dunnett’s Test, both at α = 0.05 significance level, on GraphPad Prism v9.5.1.
Support ing Text S4: Plasma Dosimetry Chemicals, Materials, and Analysis Sprague Dawley rodent plasma (pooled, mixed sex) collected with ethylenediaminetetraacetic acid (EDTA) and sterile filtered (0.2 µm) was obtained from BioIVT (Westbury, NY, USA) and stored at -80 °C until use as the control matrix for generating calibration curves and as the matrix blank during plasma sample analysis. The HFPO-TeA (98.97% pure) used for calibration curve preparation was obtained from Oakwood Products Inc. (West Columbia, South Carolina, USA). Unlabeled perfluorohexadecanoic acid (CASRN 67905-19-5 | DTXSID1070800 | PFHxDA; ≥ 98% pure) was obtained from Cambridge Isotope Laboratories (Tewksbury, MA, USA) to serve as the internal standard since a labeled HFPO-TeA standard was not commercially available.
Aliquots (25 µL) were denatured with MeOH and H2O containing 0.1 M FA and then crashed using ACN. Volumes of MeOH, FA, and ACN were determined by the anticipated sample concentrations of […]
HFPO-TeA/mL plasma = 100 µL MeOH + 875 µL FA then 50 µL subsample removed and crashed with 950 µL ACN. Anticipated sample ranges were intentionally overlapped to account for HFPO-TeA concentration differences due to biological variability among the dose groups. The internal standard PFHxDA was added prior to the ACN crash. Samples were vortexed after the addition of each solvent. […]

## O=C(O)C(F)(OC(F)(F)C(F)(OC(F)(F)C(F)(OC(F)(F)C(F)(F)C(F)(F)F)C(F)(F)F)C(F)(F)F)C(F)(F)F (stereo not drawn) [HFPO-TeA, perfluoro-(2,5,8-trimethyl-3,6,9-trioxadodecanoic) acid]
0.3 mg/kg/day, F, 2 hours, individual rats
  Plasma Conc.: 0.124 µg/mL and 0.187 µM and 0.0778 µg/mL and 0.117 µM and 0.0785 µg/mL and 0.119 µM
0.3 mg/kg/day, F, 5 days of exposure, mean ± SD n=4
  5D Plasma Conc.: 0.854 ± 0.086 µM
0.3 mg/kg/day, F, 5 days, individual rats
  Plasma Conc.: 0.492 µg/mL and 0.743 µM and 0.622 µg/mL and 0.939 µM
0.3 mg/kg/day, M, 2 hours, individual rats
  Plasma Conc.: 0.094 µg/mL and 0.142 µM and 0.086 µg/mL and 0.129 µM and 0.101 µg/mL and 0.153 µM
0.3 mg/kg/day, M, 5 days of exposure, mean ± SD n=4
  5D Plasma Conc.: 0.827 ± 0.071 µM
0.3 mg/kg/day, M, 5 days of exposure, mean ± SD n=4, read-out: 5D Plasma Conc.
  concentration at 5 days: 827 nM
0.3 mg/kg/day, M, 5 days, individual rats
  Plasma Conc.: 0.586 µg/mL and 0.885 µM and 0.567 µg/mL
0.9 mg/kg/day, F, 2 hours, individual rats
  Plasma Conc.: 0.309 µg/mL and 0.467 µM and 0.418 µg/mL and 0.631 µM and 0.392 µg/mL and 0.592 µM
0.9 mg/kg/day, M, 2 hours, individual rats
  Plasma Conc.: 0.291 µg/mL and 0.439 µM and 0.450 µg/mL and 0.679 µM and 0.345 µg/mL and 0.521 µM
0.9 mg/kg/day, M, 5 days of exposure, mean ± SD n=4
  5D Plasma Conc.: 2.73 ± 0.45 µM
0.9 mg/kg/day, M, 5 days of exposure, mean ± SD n=4, read-out: 5D Plasma Conc.
  concentration at 5 days: 2730 nM
0.9 mg/kg/day, M, 5 days, individual rats
  Plasma Conc.: 1.45 µg/mL and 2.19 µM and 2.16 µg/mL and 3.26 µM and 1.75 µg/mL and 2.65 µM
2.3 mg/kg/day, F, 2 hours, individual rats
  Plasma Conc.: 6.87 µg/mL and 10.4 µM and 7.78 µg/mL and 11.7 µM and 10.8 µg/mL and 16.3 µM and 14.6 µg/mL and 22.1 µM
2.3 mg/kg/day, M, 2 hours, individual rats
  Plasma Conc.: 11.4 µg/mL and 17.3 µM and 8.06 µg/mL and 12.2 µM and 7.45 µg/mL and 11.3 µM
2.3 mg/kg/day, M, 5 days, individual rats
  Plasma Conc.: 3.35 µg/mL and 5.06 µM and 3.50 µg/mL and 5.29 µM and 5.04 µg/mL and 7.61 µM
6.3 mg/kg/day, F, 2 hours, individual rats
  Plasma Conc.: 19.5 µg/mL and 29.5 µM and 43.9 µg/mL and 66.4 µM and 41.1 µg/mL and 62.0 µM and 36.3 µg/mL and 54.9 µM
6.3 mg/kg/day, F, 5 days of exposure, mean ± SD n=4
  5D Plasma Conc.: 52.6 ± 14.3 µM
6.3 mg/kg/day, M, 2 hours, individual rats
  Plasma Conc.: 24.4 µg/mL and 36.8 µM and 17.1 µg/mL and 25.8 µM and 24.9 µg/mL and 37.7 µM
6.3 mg/kg/day, M, 5 days, individual rats
  Plasma Conc.: 15.5 µg/mL and 15.1 µg/mL and 22.9 µM and 23.8 µM and 18.5 µg/mL and 28.0 µM
17 mg/kg/day, F, 2 h after first dose, mean ± SD n=4
  2 h Plasma Conc.: 224 ± 76 µM
17 mg/kg/day, F, 2 hours, individual rats
  Plasma Conc.: 197 µg/mL and 298 µM and 184 µg/mL and 278 µM and 94.0 µg/mL and 142 µM and 118 µg/mL and 179 µM
17 mg/kg/day, F, 5 days of exposure, mean ± SD n=4
  5D Plasma Conc.: 278 ± 28 µM
17 mg/kg/day, M, 2 h after first dose, mean ± SD n=4
  2 h Plasma Conc.: 126 ± 62 µM
17 mg/kg/day, M, 2 hours, individual rats
  Plasma Conc.: 60.6 µg/mL and 91.6 µM and 55.8 µg/mL and 84.3 µM and 73.0 µg/mL and 110 µM and 218 µM
17 mg/kg/day, M, 5 days of exposure, mean ± SD n=4
  5D Plasma Conc.: 168 ± 53 µM
17 mg/kg/day, M, 5 days of exposure, mean ± SD n=4, read-out: 5D Plasma Conc.
  concentration at 5 days: 168000 nM
17 mg/kg/day, M, 5 days, individual rats
  Plasma Conc.: 65.4 µg/mL and 98.9 µM and 109 µg/mL and 165 µM and 150 µg/mL and 227 µM and 118 µg/mL and 179 µM
female, Sprague Dawley, rat, plasma, oral, 0.3 mg/kg/day, F, 2 h after first dose, mean ± SD n=4, read-out: 2 h Plasma Conc.
  concentration at 2 h: 0.137 ± 0.033 µM
female, Sprague Dawley, rat, plasma, oral, 0.3 mg/kg/day, F, 2 hours, individual rats, read-out: Plasma Conc.
  concentration at 2 h: 82 ng/mL and 124 nM
female, Sprague Dawley, rat, plasma, oral, 0.3 mg/kg/day, F, 5 days, individual rats, read-out: Plasma Conc.
  concentration at 5 days: 550 ng/mL and 831 nM
female, Sprague Dawley, rat, plasma, oral, 0.9 mg/kg/day, F, 2 h after first dose, mean ± SD n=4, read-out: 2 h Plasma Conc.
  concentration at 2 h: 0.62 ± 0.133 µM
female, Sprague Dawley, rat, plasma, oral, 0.9 mg/kg/day, F, 2 hours, individual rats, read-out: Plasma Conc.
  concentration at 2 h: 523 ng/mL and 790 nM
female, Sprague Dawley, rat, plasma, oral, 0.9 mg/kg/day, F, 5 days of exposure, mean ± SD n=4, read-out: 5D Plasma Conc.
  concentration at 5 days: 3620 ± 910 nM
female, Sprague Dawley, rat, plasma, oral, 0.9 mg/kg/day, F, 5 days, individual rats, read-out: Plasma Conc.
  concentration at 5 days: 1870 ng/mL and 2.83 µM
female, Sprague Dawley, rat, plasma, oral, 2.3 mg/kg/day, F, 2 h after first dose, mean ± SD n=4, read-out: 2 h Plasma Conc.
  concentration at 2 h: 15.1 ± 5.3 µM
female, Sprague Dawley, rat, plasma, oral, 2.3 mg/kg/day, F, 5 days of exposure, mean ± SD n=4, read-out: 5D Plasma Conc.
  concentration at 5 days: 8920 ± 2360 nM
female, Sprague Dawley, rat, plasma, oral, 2.3 mg/kg/day, F, 5 days, individual rats, read-out: Plasma Conc.
  concentration at 5 days: 5700 ng/mL and 8.62 µM
female, Sprague Dawley, rat, plasma, oral, 6.3 mg/kg/day, F, 2 h after first dose, mean ± SD n=4, read-out: 2 h Plasma Conc.
  concentration at 2 h: 53.2 ± 16.5 µM
female, Sprague Dawley, rat, plasma, oral, 6.3 mg/kg/day, F, 5 days of exposure, mean ± SD n=4, read-out: 5D Plasma Conc.
  concentration at 5 days: 52600 ± 14300 nM
female, Sprague Dawley, rat, plasma, oral, 6.3 mg/kg/day, F, 5 days, individual rats, read-out: Plasma Conc.
  concentration at 5 days: 33900 ng/mL and 51.2 µM
female, Sprague Dawley, rat, plasma, oral, 17 mg/kg/day, F, 2 h after first dose, mean ± SD n=4, read-out: 2 h Plasma Conc.
  concentration at 2 h: 224 ± 76 µM
female, Sprague Dawley, rat, plasma, oral, 17 mg/kg/day, F, 5 days, individual rats, read-out: Plasma Conc.
  concentration at 5 days: 200000 ng/mL and 302 µM
male, Sprague Dawley, rat, plasma, oral, 0.3 mg/kg/day, M, 2 h after first dose, mean ± SD n=4, read-out: 2 h Plasma Conc.
  concentration at 2 h: 0.15 ± 0.02 µM
male, Sprague Dawley, rat, plasma, oral, 0.3 mg/kg/day, M, 2 hours, individual rats, read-out: Plasma Conc.
  concentration at 2 h: 117 ng/mL and 176 nM
male, Sprague Dawley, rat, plasma, oral, 0.3 mg/kg/day, M, 5 days, individual rats, read-out: Plasma Conc.
  concentration at 5 days: 558 ng/mL and 843 nM
male, Sprague Dawley, rat, plasma, oral, 0.9 mg/kg/day, M, 2 h after first dose, mean ± SD n=4, read-out: 2 h Plasma Conc.
  concentration at 2 h: 0.573 ± 0.113 µM
male, Sprague Dawley, rat, plasma, oral, 0.9 mg/kg/day, M, 2 hours, individual rats, read-out: Plasma Conc.
  concentration at 2 h: 431 ng/mL and 651 nM
male, Sprague Dawley, rat, plasma, oral, 0.9 mg/kg/day, M, 5 days, individual rats, read-out: Plasma Conc.
  concentration at 5 days: 1870 ng/mL and 2.83 µM
male, Sprague Dawley, rat, plasma, oral, 2.3 mg/kg/day, M, 2 h after first dose, mean ± SD n=4, read-out: 2 h Plasma Conc.
  concentration at 2 h: 13.1 ± 2.8 µM
male, Sprague Dawley, rat, plasma, oral, 2.3 mg/kg/day, M, 2 hours, individual rats, read-out: Plasma Conc.
  concentration at 2 h: 7650 ng/mL and 11.6 µM
male, Sprague Dawley, rat, plasma, oral, 2.3 mg/kg/day, M, 5 days of exposure, mean ± SD n=4, read-out: 5D Plasma Conc.
  concentration at 5 days: 6640 ± 1730 nM
male, Sprague Dawley, rat, plasma, oral, 2.3 mg/kg/day, M, 5 days, individual rats, read-out: Plasma Conc.
  concentration at 5 days: 5680 ng/mL and 8.58 µM
male, Sprague Dawley, rat, plasma, oral, 6.3 mg/kg/day, M, 2 h after first dose, mean ± SD n=4, read-out: 2 h Plasma Conc.
  concentration at 2 h: 34 ± 5.5 µM
male, Sprague Dawley, rat, plasma, oral, 6.3 mg/kg/day, M, 2 hours, individual rats, read-out: Plasma Conc.
  concentration at 2 h: 23700 ng/mL and 35.8 µM
male, Sprague Dawley, rat, plasma, oral, 6.3 mg/kg/day, M, 5 days of exposure, mean ± SD n=4, read-out: 5D Plasma Conc.
  concentration at 5 days: 24500 ± 2300 nM
male, Sprague Dawley, rat, plasma, oral, 6.3 mg/kg/day, M, 5 days, individual rats, read-out: Plasma Conc.
  concentration at 5 days: 23300 nM
male, Sprague Dawley, rat, plasma, oral, 17 mg/kg/day, M, 2 h after first dose, mean ± SD n=4, read-out: 2 h Plasma Conc.
  concentration at 2 h: 126 ± 62 µM
